Results: US20190175744A1, “INSULIN-INCRETIN CONJUGATES” (Merck Sharp & Dohme Corp., priority 2016, published 2019)
Blank lines part the entries; values can stand above or below the molecule they belong to.

Tests used:
[1] = target: T1, human IR (Homo sapiens, UniProt P06213); assay: Insulin Receptor Phosphorylation (pAkt) Assay, CHO cells overexpressing human IR; format: cell-based; conditions: Table 7, control molecules, read-out: Insulin Receptor pAK Assay EC50 Human
T1 construct: expressed in transfected cells; host or cells: CHO cells (G418 selection)
T1 sequence (P06213 28-758 limits assumed): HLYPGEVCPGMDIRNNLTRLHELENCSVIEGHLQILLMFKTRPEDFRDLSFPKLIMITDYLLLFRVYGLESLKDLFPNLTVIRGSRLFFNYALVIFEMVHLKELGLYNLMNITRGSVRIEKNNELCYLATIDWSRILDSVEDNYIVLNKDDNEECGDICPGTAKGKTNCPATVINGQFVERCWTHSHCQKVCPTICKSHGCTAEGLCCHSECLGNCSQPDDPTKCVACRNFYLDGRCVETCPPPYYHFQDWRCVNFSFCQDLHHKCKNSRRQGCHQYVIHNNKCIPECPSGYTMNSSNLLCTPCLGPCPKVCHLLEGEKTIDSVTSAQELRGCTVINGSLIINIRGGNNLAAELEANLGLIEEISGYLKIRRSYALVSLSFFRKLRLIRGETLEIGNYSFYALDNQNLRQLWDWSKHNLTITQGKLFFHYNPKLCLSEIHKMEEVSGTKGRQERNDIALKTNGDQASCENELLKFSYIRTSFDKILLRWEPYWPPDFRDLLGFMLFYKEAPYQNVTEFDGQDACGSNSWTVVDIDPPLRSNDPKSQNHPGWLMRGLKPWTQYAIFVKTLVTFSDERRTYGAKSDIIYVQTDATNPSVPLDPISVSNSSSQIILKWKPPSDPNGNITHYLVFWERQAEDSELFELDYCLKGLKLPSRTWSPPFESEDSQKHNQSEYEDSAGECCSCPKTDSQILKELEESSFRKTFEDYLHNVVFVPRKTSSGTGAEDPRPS
T1 sequence (P06213 763-1382 limits assumed): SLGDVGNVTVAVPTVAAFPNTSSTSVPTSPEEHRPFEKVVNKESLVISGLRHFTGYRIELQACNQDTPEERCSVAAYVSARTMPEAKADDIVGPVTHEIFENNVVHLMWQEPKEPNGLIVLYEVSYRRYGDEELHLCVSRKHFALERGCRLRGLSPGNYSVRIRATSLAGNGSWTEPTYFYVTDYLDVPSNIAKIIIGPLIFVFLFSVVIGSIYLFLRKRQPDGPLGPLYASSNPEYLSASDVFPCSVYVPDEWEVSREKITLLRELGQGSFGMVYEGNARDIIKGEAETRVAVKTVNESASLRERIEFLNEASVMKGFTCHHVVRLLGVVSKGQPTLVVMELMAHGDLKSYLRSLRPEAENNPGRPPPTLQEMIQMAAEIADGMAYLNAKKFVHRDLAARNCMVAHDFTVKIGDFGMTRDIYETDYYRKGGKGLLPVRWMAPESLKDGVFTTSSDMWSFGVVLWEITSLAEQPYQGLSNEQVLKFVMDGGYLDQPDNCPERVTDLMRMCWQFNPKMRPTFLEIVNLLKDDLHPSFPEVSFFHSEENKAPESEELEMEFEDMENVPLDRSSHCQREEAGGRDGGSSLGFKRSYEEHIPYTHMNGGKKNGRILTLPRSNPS

[2] = target: T2, minipig IR (Sus scrofa, UniProt F1SCL0); assay: Insulin Receptor Phosphorylation (pAkt) Assay, CHO cells overexpressing minipig IR; format: cell-based; conditions: Table 7, control molecules, read-out: Insulin Receptor pAK Assay EC50 Minipig
T2 construct: expressed in transfected cells; host or cells: CHO cells (G418 selection)
T2 sequence (F1SCL0 28-1382): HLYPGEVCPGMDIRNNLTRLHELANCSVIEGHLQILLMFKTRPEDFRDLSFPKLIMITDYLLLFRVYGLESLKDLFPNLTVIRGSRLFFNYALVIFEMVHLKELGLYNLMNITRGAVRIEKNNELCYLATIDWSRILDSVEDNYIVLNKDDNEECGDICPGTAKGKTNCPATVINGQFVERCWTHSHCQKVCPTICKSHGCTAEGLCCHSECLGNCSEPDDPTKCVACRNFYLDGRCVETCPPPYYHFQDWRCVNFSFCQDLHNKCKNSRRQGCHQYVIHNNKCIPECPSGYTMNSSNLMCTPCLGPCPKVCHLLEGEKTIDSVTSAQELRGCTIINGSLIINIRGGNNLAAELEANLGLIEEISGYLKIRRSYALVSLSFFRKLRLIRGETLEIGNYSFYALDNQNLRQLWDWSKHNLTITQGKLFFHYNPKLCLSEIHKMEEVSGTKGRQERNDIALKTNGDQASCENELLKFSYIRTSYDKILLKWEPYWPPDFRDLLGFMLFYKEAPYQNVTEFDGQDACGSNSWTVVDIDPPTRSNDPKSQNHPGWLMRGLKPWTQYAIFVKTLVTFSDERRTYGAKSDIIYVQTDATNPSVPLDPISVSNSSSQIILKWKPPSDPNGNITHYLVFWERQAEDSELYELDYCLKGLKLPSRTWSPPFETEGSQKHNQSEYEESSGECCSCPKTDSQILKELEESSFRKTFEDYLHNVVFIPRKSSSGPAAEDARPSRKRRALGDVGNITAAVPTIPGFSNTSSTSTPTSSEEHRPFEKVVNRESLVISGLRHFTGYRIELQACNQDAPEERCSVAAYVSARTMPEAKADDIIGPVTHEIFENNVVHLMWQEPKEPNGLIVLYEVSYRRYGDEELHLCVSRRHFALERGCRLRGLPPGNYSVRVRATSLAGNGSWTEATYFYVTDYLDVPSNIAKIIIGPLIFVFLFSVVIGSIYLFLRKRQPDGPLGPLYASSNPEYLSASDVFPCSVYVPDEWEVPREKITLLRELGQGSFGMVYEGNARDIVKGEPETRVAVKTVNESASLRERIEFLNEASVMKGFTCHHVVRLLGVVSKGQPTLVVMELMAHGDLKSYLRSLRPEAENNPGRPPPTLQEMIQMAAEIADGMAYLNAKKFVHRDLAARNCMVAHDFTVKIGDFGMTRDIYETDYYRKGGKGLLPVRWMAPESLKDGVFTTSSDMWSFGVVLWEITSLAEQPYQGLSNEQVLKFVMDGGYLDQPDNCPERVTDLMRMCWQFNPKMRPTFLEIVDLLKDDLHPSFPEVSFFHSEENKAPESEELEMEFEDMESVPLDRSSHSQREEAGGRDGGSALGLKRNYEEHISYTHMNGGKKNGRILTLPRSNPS

[3] = target: T3, Insulin Receptor (Sus scrofa, UniProt F1SCL0); assay: Insulin Receptor Binding Assay, minipig; conditions: Table 7, control molecules, minipig IR
T3 construct: expressed in transfected cells
T3 sequence (F1SCL0 28-1382): as above
Experimental: Method 1 IR binding assay is a whole cell binding method using CHO cells overexpressing human IR(B). The cells are grown in F12 media containing 10% FBS and antibiotics (G418, Penicillin/Strepavidin), plated at 40,000 cells/well in a 96-well tissue culture plate for at least eight hours. The cells are then serum starved by switching to DMEM media containing 1% BSA (insulin-free) overnight. The cells are washed twice with chilled DMEM media containing 1% BSA (insulin-free) followed by the addition of conjugate at appropriate concentration in 90 μL of the same media. The cells are incubated on ice for 60 minutes.
Method 2 IR binding assay is run in a scintillation proximity assay (SPA) in 384-well format using cell membranes prepared from CHO cells overexpressing human IR(B) grown in F12 media containing 10% FBS and antibiotics (G418, Penicillin/Strepavidin). Cell membranes are prepared in 50 mM Tris buffer, pH 7.8 containing 5 mM MgCl2. The assay buffer contains 50 mM Tris buffer, pH 7.5, 150 mM NaCl, 1 mM CaCl2, 5 mM MgCl2, 0.1% BSA and protease inhibitors (Complete-Mini-Roche). Cell membranes are added to WGA PVT PEI SPA beads (5 mg/mL final concentration) followed by addition of conjugate at appropriate concentrations.

[4] = target: T4, human GCGR (Homo sapiens, UniProt P47871); assay: cAMP activity assay, cells expressing human GCGR; format: cell-based;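 further: cAMP production read by luminescence after one hour of peptide exposure at room temperature, EC50 from logistic curve fit, native glucagon and GLP-1 as control peptides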
T4 construct: expressed in transfected cells; grown with Blasticidin and Hygromycin
T4 sequence (P47871 26-477): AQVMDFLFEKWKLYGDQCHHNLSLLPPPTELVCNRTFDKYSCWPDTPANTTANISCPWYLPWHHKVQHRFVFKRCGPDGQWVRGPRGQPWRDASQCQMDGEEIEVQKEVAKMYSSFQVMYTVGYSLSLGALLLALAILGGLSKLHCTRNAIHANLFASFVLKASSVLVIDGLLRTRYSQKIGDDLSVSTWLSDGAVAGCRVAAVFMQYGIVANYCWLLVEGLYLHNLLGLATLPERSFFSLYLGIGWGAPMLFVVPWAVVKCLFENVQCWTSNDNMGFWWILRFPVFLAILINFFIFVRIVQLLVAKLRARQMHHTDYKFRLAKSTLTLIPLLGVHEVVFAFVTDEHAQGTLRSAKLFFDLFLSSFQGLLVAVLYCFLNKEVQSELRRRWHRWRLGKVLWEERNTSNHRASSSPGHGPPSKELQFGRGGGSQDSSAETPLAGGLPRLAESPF

[5] = target: human GLP1R (Homo sapiens, UniProt P43220); assay: cAMP activity assay, cells expressing human GLP1R; format: cell-based
Sequence of human GLP1R (P43220 24-463): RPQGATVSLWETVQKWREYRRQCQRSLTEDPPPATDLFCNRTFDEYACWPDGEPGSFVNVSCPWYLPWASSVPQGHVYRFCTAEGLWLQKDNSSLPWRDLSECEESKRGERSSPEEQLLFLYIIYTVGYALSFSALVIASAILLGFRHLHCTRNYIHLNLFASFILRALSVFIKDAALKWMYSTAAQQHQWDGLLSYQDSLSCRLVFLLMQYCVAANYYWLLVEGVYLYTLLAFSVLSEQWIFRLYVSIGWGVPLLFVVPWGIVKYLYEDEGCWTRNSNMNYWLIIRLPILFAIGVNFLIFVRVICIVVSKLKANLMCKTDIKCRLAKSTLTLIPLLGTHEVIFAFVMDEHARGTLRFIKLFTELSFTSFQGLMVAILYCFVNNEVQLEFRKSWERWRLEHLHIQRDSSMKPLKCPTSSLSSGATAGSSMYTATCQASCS
Experimental: Activity of the incretin peptides or the conjugates at the Glucagon receptor (GCGR) and GLP-1 receptor (GLP1R) may be measured in a cAMP activity assay as follows.
Peptides are dissolved in 100% DMSO and serially diluted to generate 10 point titrations. The peptide solutions are then transferred into 384-well assay plates (150 nL/well). Assay ready frozen cells expressing human GLP1R or human GCGR are suspended in growth media consisting of DMEM medium (GIBCO), 10% FBS (GIBCO), 1×NEAA(GIBCO), 1×P/S (GIBCO), 10 μg/mL Blasticidin (GIBCO) and 200 μg/mL Hygromycin (GIBCO). […] The cell suspensions (15 μL) are then added to the assay plates containing the peptide solutions (30,000 cells/well for human GCGR; 10,000 cells/well for human GLP1R). The cells are incubated for one hour at room temperature in the dark.
Production of cAMP may be determined using HitHunterr cAMPXS kits (DiscoverX) following the manufacturer's protocol. The plates are incubated for overnight at room temperature in the dark. Luminescence may be measured using an EnVision Multilabel plate reader (Perkin Elmer). Native GLP-1 and Glucagon (Bachem) may be used as control peptides. EC50 values may be calculated using uses a 4 parameter logistic fit based on the Levenberg-Marquardt algorithm.

- EC50 [1]: 510 pM
- EC50 [2]: 500 pM
Molecule: Insulin levemir [IL]

- EC50 [3]: 8460 pM
Molecule: Insulin degludec [ID]

Molecule: CCCCCCCCCCCCCCCC(=O)N[C@@H](CCC(=O)N[C@@H](CCC(=O)NCCCC[C@H](NC(=O)[C@H](CC(=O)O)NC(=O)[C@H](CO)NC(=O)[C@@H](NC(=O)[C@H](Cc1ccccc1)NC(=O)[C@@H](NC(=O)CNC(=O)[C@H](CCC(N)=O)NC(=O)C(C)(C)NC(=O)[C@@H](N)Cc1c[nH]cn1)[C@@H](C)O)[C@@H](C)O)C(=O)N[C@@H](CO)C(=O)N[C@@H](CCCCN)C(=O)N[C@@H](Cc1ccc(O)cc1)C(=O)N[C@@H](CC(C)C)C(=O)N[C@@H](CC(=O)O)C(=O)NC(C)(C)C(=O)N[C@@H](CCCNC(=N)N)C(=O)N[C@@H](C)C(=O)N[C@@H](C)C(=O)N[C@@H](CCC(N)=O)C(=O)N[C@@H](CC(=O)O)C(=O)N[C@@H](Cc1ccccc1)C(=O)N[C@H](C(=O)N[C@@H](CCCCN=[N+]=[N-])C(=O)N[C@@H](Cc1c[nH]c2ccccc12)C(=O)N[C@@H](CC(C)C)C(=O)N[C@@H](CCS(C)(=O)=O)C(=O)N[C@@H](CC(=O)O)C(=O)N[C@H](C(N)=O)[C@@H](C)O)C(C)C)C(=O)O)C(=O)O [PEP10]
- EC50 [4]: 20 pM
- GCGR/GLP1R ratio ([4]; Table 5, ratio of hGCGR EC50 to hGLP1R EC50): 0.7
- EC50 [5]: 30 pM
